Experimental data reported in the supplement of paper PMC10307832.

Key:
Experiment in all cases: relative viability (nuclei count vs DMSO), 5 days (fraction); higher = more cells survive
H3255 = test system: H3255
Summary of the method: (§1)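 A single step with final 0.05% Triton X-100, 1% formaldehyde and 1 ug/ml Hoechst fixed the cells and stained nuclei 5 days after treatment. Lung cancer cell lines in 1536-well plates had been treated by pin tool the day after seeding with one drug alone or a fixed anchor-drug dose plus five library-drug doses (not always all listed) in √10 steps, and nuclei were counted on 4× images. Relative viability is the ratio of nuclei in treated wells to nuclei in vehicle wells, taken as the median of duplicate plates.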

NCI-H650 = test system: NCI-H650
Summary of the method: as §1

NCI-H1650 = test system: NCI-H1650
Summary of the method: as §1

NCI-H838 = test system: NCI-H838
Summary of the method: as §1

LU99A = test system: LU99A
Summary of the method: as §1

SW 1573 = test system: SW 1573
Summary of the method: as §1

PC-3 [JPC-3] = test system: PC-3 [JPC-3]
Summary of the method: as §1

NCI-H460 = test system: NCI-H460
Summary of the method: as §1

COR-L23 = test system: COR-L23
Summary of the method: as §1

NCI-H1793 = test system: NCI-H1793
Summary of the method: as §1

PC-14 = test system: PC-14
Summary of the method: as §1

SW 900 = test system: SW 900
Summary of the method: as §1

LK-2 = test system: LK-2
Summary of the method: as §1

NCI-H1563 = test system: NCI-H1563
Summary of the method: as §1

NCI-H727 = test system: NCI-H727
Summary of the method: as §1

NCI-H23 = test system: NCI-H23
Summary of the method: as §1

NCI-H2347 = test system: NCI-H2347
Summary of the method: as §1

LCLC-103H = test system: LCLC-103H
Summary of the method: as §1

A-427 = test system: A-427
Summary of the method: as §1

NCI-H1944 = test system: NCI-H1944
Summary of the method: as §1

201T = test system: 201T
Summary of the method: as §1

LCLC-97TM1 = test system: LCLC-97TM1
Summary of the method: as §1

Compound: O=C(O)c1ccc(-c2c[nH]c3ncc(-c4ccccc4)cc23)cc1C1CCCC1 + COc1cc2c(Oc3ccc(NC(=O)C4(C(=O)Nc5ccc(F)cc5)CC4)cc3F)ccnc2cc1OCCCN1CCOCC1 [Foretinib] (partner 0.25 µM)
- relative viability (H3255; first compound 0.04 µM): 0.934
- relative viability (H3255; first compound 0.1265 µM): 1.08
- relative viability (H3255; first compound 0.4 µM): 0.888
- relative viability (H3255; first compound 1.265 µM): 0.814
- relative viability (NCI-H650; first compound 0.04 µM): 1.13
- relative viability (NCI-H650; first compound 0.1265 µM): 1.11
- relative viability (NCI-H650; first compound 0.4 µM): 0.888
- relative viability (NCI-H650; first compound 1.265 µM): 0.71
- relative viability (NCI-H1650; first compound 0.04 µM): 1.22
- relative viability (NCI-H1650; first compound 0.1265 µM): 1.57
- relative viability (NCI-H1650; first compound 0.4 µM): 1.6
- relative viability (NCI-H1650; first compound 1.265 µM): 1.14
- relative viability (NCI-H838; first compound 0.04 µM): 1.02
- relative viability (NCI-H838; first compound 0.1265 µM): 1.17
- relative viability (NCI-H838; first compound 0.4 µM): 1.05
- relative viability (NCI-H838; first compound 1.265 µM): 0.923
- relative viability (LU99A; first compound 0.04 µM): 0.803
- relative viability (LU99A; first compound 0.1265 µM): 0.783
- relative viability (LU99A; first compound 0.4 µM): 0.729
- relative viability (LU99A; first compound 1.265 µM): 0.677
- relative viability (SW 1573; first compound 0.04 µM): 0.977
- relative viability (SW 1573; first compound 0.1265 µM): 0.901
- relative viability (SW 1573; first compound 0.4 µM): 0.902
- relative viability (SW 1573; first compound 1.265 µM): 0.791
- relative viability (PC-3 [JPC-3]; first compound 0.04 µM): 1
- relative viability (PC-3 [JPC-3]; first compound 0.1265 µM): 1.14
- relative viability (PC-3 [JPC-3]; first compound 0.4 µM): 0.978
- relative viability (PC-3 [JPC-3]; first compound 1.265 µM): 0.61
- relative viability (NCI-H460; first compound 0.04 µM): 0.993
- relative viability (NCI-H460; first compound 0.1265 µM): 1.14
- relative viability (NCI-H460; first compound 0.4 µM): 0.962
- relative viability (NCI-H460; first compound 1.265 µM): 0.917
- relative viability (COR-L23; first compound 0.04 µM): 1.02
- relative viability (COR-L23; first compound 0.1265 µM): 1.19
- relative viability (COR-L23; first compound 0.4 µM): 0.943
- relative viability (COR-L23; first compound 1.265 µM): 0.636
- relative viability (NCI-H1793; first compound 0.04 µM): 0.66
- relative viability (NCI-H1793; first compound 0.1265 µM): 0.75
- relative viability (NCI-H1793; first compound 0.4 µM): 0.702
- relative viability (NCI-H1793; first compound 1.265 µM): 0.602
- relative viability (PC-14; first compound 0.04 µM): 0.943
- relative viability (PC-14; first compound 0.1265 µM): 0.958
- relative viability (PC-14; first compound 0.4 µM): 1.01
- relative viability (PC-14; first compound 1.265 µM): 0.941
- relative viability (SW 900; first compound 0.04 µM): 0.921
- relative viability (SW 900; first compound 0.1265 µM): 0.839
- relative viability (SW 900; first compound 0.4 µM): 0.896
- relative viability (SW 900; first compound 1.265 µM): 0.824
- relative viability (LK-2; first compound 0.04 µM): 1.33
- relative viability (LK-2; first compound 0.1265 µM): 1.14
- relative viability (LK-2; first compound 0.4 µM): 1.13
- relative viability (LK-2; first compound 1.265 µM): 0.969
- relative viability (NCI-H1563; first compound 0.04 µM): 0.924
- relative viability (NCI-H1563; first compound 0.1265 µM): 1.03
- relative viability (NCI-H1563; first compound 0.4 µM): 0.853
- relative viability (NCI-H1563; first compound 1.265 µM): 0.97
- relative viability (NCI-H727; first compound 0.04 µM): 1.2
- relative viability (NCI-H727; first compound 0.1265 µM): 0.823
- relative viability (NCI-H727; first compound 0.4 µM): 0.754
- relative viability (NCI-H727; first compound 1.265 µM): 0.944
- relative viability (NCI-H23; first compound 0.04 µM): 1.1
- relative viability (NCI-H23; first compound 0.1265 µM): 1
- relative viability (NCI-H23; first compound 0.4 µM): 0.939
- relative viability (NCI-H23; first compound 1.265 µM): 0.616
- relative viability (NCI-H2347; first compound 0.04 µM): 0.861
- relative viability (NCI-H2347; first compound 0.1265 µM): 0.783
- relative viability (NCI-H2347; first compound 0.4 µM): 1.01
- relative viability (NCI-H2347; first compound 1.265 µM): 0.803
- relative viability (LCLC-103H; first compound 0.04 µM): 0.702
- relative viability (LCLC-103H; first compound 0.1265 µM): 0.793
- relative viability (LCLC-103H; first compound 0.4 µM): 0.613
- relative viability (LCLC-103H; first compound 1.265 µM): 0.507
- relative viability (A-427; first compound 0.04 µM): 0.994
- relative viability (A-427; first compound 0.1265 µM): 1.12
- relative viability (A-427; first compound 0.4 µM): 1.01
- relative viability (A-427; first compound 1.265 µM): 0.786
- relative viability (NCI-H1944; first compound 0.04 µM): 0.923
- relative viability (NCI-H1944; first compound 0.1265 µM): 0.988
- relative viability (NCI-H1944; first compound 0.4 µM): 0.911
- relative viability (NCI-H1944; first compound 1.265 µM): 0.807
- relative viability (201T; first compound 0.04 µM): 1.29
- relative viability (201T; first compound 0.1265 µM): 1.25
- relative viability (201T; first compound 0.4 µM): 1.11
- relative viability (201T; first compound 1.265 µM): 0.958
- relative viability (LCLC-97TM1; first compound 0.04 µM): 0.911
- relative viability (LCLC-97TM1; first compound 0.1265 µM): 1.03
- relative viability (LCLC-97TM1; first compound 0.4 µM): 0.892
- relative viability (LCLC-97TM1; first compound 1.265 µM): 0.525
